Experimental data from patent US5792635A, “Method of inhibiting the sodium/proton exchanger NHE3 and method of inhibiting growth by administering squalamine” (priority 1995, dated 1998).
Values after ≈ are worked out from the molar mass of the structure shown. “Also recorded” adds a separate entry of the source.

Experiments:
[1] = test system: vitelline capillaries of 3- to 5-day chick embryo; test: Chick embryo vitelline capillary regression assay; format: in vivo; parameters: key to vascular reactivity: +: Vascular reactivity; 0: No vascular reactivity; +/-: Equivocal reactivity; conditions: for vascular reactivity: 60 minutes
Description: (§1) Using the chick embryo vitelline capillaries assay, compounds were tested for their ability to induce capillary regression. Each compound was applied in 0.1 ml of 15% Ficol 400 and PBS onto the embryo, and vascular regression was assessed after 60 minutes.
The 3-day chick embryo consists of an embryonic disc from which numerous vessels emerge and return, forming a "figure 8"-shaped structure--the embryo in the center with vascular loops extending outward over both poles. […] Following a lag period of around 15 minutes, the constriction of continuity between capillary and secondary vessels, generally on the "venous" side, was observed. Continued pulsatile blood flow progressed, resulting in a "swelling" of the blind tube, followed by a pinching off of the remaining connection and formation of an enclosed vascular sac resembling a "blood island." This process progressed until only the largest vessels remained intact.

P. = test: Antibiotic activity, MIC; format: cell-based; conditions: read-out: MIC Values
S. aureus = test: Antibiotic activity, MIC; format: cell-based; conditions: Staphylococcus aureus
E. Coli = test: Antibiotic activity, MIC; format: cell-based; conditions: Escherichia coli
C. albicans = test: Antibiotic activity, MIC; format: cell-based; conditions: Candida albicans
HM = HM MTT assay (Table II); format: cell-based; conditions: read-out: Minimum Effective Concentration, HM MTT assay
[2] = test system: human microvascular cells; test: Inhibition of endothelial cell cord formation in vitro; format: cell-based; conditions: for minimal effective concentration: Homo sapiens, Endothelial cell, Table II, read-out: Minimum Effective Concentration, Cord Formation
From the text: Endothelial cells have the capacity in vitro to form tubular aggregates resembling capillaries in various early stages of formation. This conversion occurs under relatively specific conditions, in which essential growth factors along with an effective substratum are provided. It has been shown that both the interaction of growth factors with the endothelial cell and its attachment to a substratum activate the NHE. The activation of this exchanger is believed to be required for subsequent morphologic transformation of the endothelial cell into a multicellular tubular structure.
To assess the effect of compounds on the cord-like structures formed by human microvascular cells when plated in the presence of VEGF (Vascular Endothelial Growth Factor) and basic fibroblast growth factor on a collagen matrix, a standard cord formation assay was used.

chick embryo = test: Chick embryo diss. assay (Table II); format: in vivo
Description: as §1

Xenopus tadpoles = test: Tadpole assay
LLC = LLC MTT assay (Table II); format: cell-based; conditions: Lewis lung carcinoma, read-out: Minimum Effective Concentration, LLC MTT
[3] = test system: L1210 lymphoblastic leukemia cells; test: Mouse model of leukemia (L1210), survival and hematological profile; conditions: L1210-inoculated mice
From the text: C57B mice were inoculated with L1210 lymphoblastic leukemia cells at an inoculum that causes leukemia in 100% of animals.

COC(=O)CC[C@@H](C)[C@H]1CC[C@H]2[C@@H]3[C@H](O)C[C@@H]4C[C@@H](NCCCNCCCCNCCCN)CC[C@]4(C)[C@H]3CC[C@]12C [Compound 411]
vascular reactivity ([1]; 0.1 μg applied): 0

CC(C)CCC[C@@H](C)[C@H]1CC[C@H]2[C@@H]3CC[C@H]4C[C@H](NCCCCN)CC[C@]4(C)[C@H]3CC[C@]12C
MIC (P.): > 256 µg/mL
MIC (S. aureus): 4 µg/mL (≈ 8.72 µM)
MIC (E. Coli): > 256 µg/mL
MIC (C. albicans): 64 µg/mL (≈ 139 µM)

CC(C)C(O)CC[C@@H](C)[C@H]1CC[C@H]2[C@@H]3[C@H](O)C[C@H]4C[C@@H](NCCCNCCCCN(C)C)CC[C@]4(C)[C@H]3CC[C@]12C (stereo partly drawn)
MIC (P.): 129 µg/mL (≈ 224 µM)

COC(=O)CCC(C)[C@H]1CCC2C3C(CC[C@@]21C)[C@@]1(C)CC[C@@H](NCCN)C[C@H]1C[C@H]3O (stereo partly drawn) [drawing 93]
minimal effective concentration (HM): 2.6 µg/mL
minimal effective concentration [2]: 10 µg/mL
Minimum Effective Concentration, chick embryo diss. assay (chick embryo): 0.01 µg

CC(C)CCC[C@@H](C)[C@H]1CC[C@H]2[C@@H]3CC[C@H]4C[C@@H](NCCCCN)CC[C@]4(C)[C@H]3CC[C@]12C
MIC (P.): > 256 µg/mL
MIC (S. aureus): 16 µg/mL (≈ 34.9 µM)
MIC (E. Coli): > 256 µg/mL
MIC (C. albicans): > 256 µg/mL

CC(C)[C@@H](CC[C@@H](C)[C@H]1CC[C@H]2[C@@H]3[C@H](O)C[C@H]4C[C@@H](NCCCNCCCCN)CC[C@]4(C)[C@H]3CC[C@]12C)OS(=O)(=O)O [drawing 116]
minimal effective concentration (HM): 7.8 µg/mL

C[C@H](CCC(=O)O)[C@H]1CC[C@H]2[C@@H]3[C@H](O)C[C@@H]4C[C@H](NCCCNCCCCNCCCN)CC[C@]4(C)[C@H]3CC[C@]12C [Compound 412]
functional similarity in tadpole assay (Xenopus tadpoles; Xenopus tadpole assay): pharmacologic activity similar to that seen for FX 3
endothelial cord formation ([2]; 10.0 μg/ml): +

COC(=O)CCC(C)[C@H]1CCC2C3C(CC[C@@]21C)[C@@]1(C)CC[C@H](NCCCNCCCCNCCCN)C[C@H]1C[C@H]3O (stereo partly drawn) [drawing 109]
minimal effective concentration [2]: 10 µg/mL
Minimum Effective Concentration, chick embryo diss. assay (chick embryo): > 1 µg

CC(C)[C@@H](CC[C@@H](C)[C@H]1CC[C@H]2[C@@H]3[C@H](O)C[C@H]4C[C@@H](NCCCNCCCCNCCCN)CC[C@]4(C)[C@H]3CC[C@]12C)OS(=O)(=O)O [drawing 119]
minimal effective concentration (HM): 6.9 µg/mL
minimal effective concentration (LLC): 16.7 µg/mL

C[C@H](CCC(=O)O)[C@H]1CC[C@H]2[C@@H]3[C@H](O)C[C@@H]4C[C@@H](NCCCNCCCCNCCCN)CC[C@]4(C)[C@H]3CC[C@]12C [Compound 413]
functional similarity in tadpole assay (Xenopus tadpoles; Xenopus tadpole assay): effects like those produced by compound 1436
endothelial cord formation ([2]; 0.1 μg/ml): -
vascular reactivity ([1]; 1 μg applied): 0

COC(=O)CC[C@@H](C)[C@H]1CC[C@H]2[C@@H]3[C@H](O)C[C@@H]4C[C@@H](NCCN)CC[C@]4(C)[C@H]3CC[C@]12C [Compound 409]
functional similarity in tadpole assay (Xenopus tadpoles; Xenopus tadpole assay): functionally similar to compound 1437
vascular reactivity ([1]; 1 μg applied): 0

CC(C)CCCC(C)[C@H]1CCC2C3CC[C@H]4C[C@H](NCCCN5CCCCN=C5N)CC[C@]4(C)C3CC[C@@]21C (stereo partly drawn)
Minimum Effective Concentration, chick embryo diss. assay (chick embryo): > 10 µg

COC(=O)CCC(C)[C@H]1CCC2C3CC[C@H]4C[C@H](NCCCNCCCCNCCCN)CC[C@]4(C)C3CC[C@@]21C (stereo partly drawn) [drawing 108]
minimal effective concentration (LLC): 6.8 µg/mL
Minimum Effective Concentration, chick embryo diss. assay (chick embryo): > 1 µg

CC(C)CCCC(C)[C@H]1CCC2C3C(CC[C@@]21C)[C@@]1(C)CC[C@H](N)C[C@@H]1C[C@H]3O (stereo partly drawn) [drawing 88]
Minimum Effective Concentration, chick embryo diss. assay (chick embryo): 1 µg

C[C@H](CCC(=O)O)[C@H]1CC[C@H]2[C@@H]3[C@H](O)C[C@H]4C[C@@H](NCCCNCCCCN)CC[C@]4(C)[C@H]3CC[C@]12C [Compound 381]
vascular reactivity ([1]; 1 μg applied): 0

COC(=O)CCC(C)[C@H]1CCC2C3CC[C@@H]4C[C@H](NCCCNCCCCNCCCN)CC[C@]4(C)C3C[C@H](O)[C@@]21C (stereo partly drawn) [drawing 106]
Minimum Effective Concentration, chick embryo diss. assay (chick embryo): 1 µg

C[C@H](CCC(=O)O)[C@H]1CC[C@H]2[C@@H]3[C@H](O)C[C@@H]4C[C@@H](NCCN)CC[C@]4(C)[C@H]3CC[C@]12C [Compound 415]
endothelial cord formation ([2]; 10.0 μg/ml): +/T
activity in vitelline capillary regression assay ([1]; Table 5): especially active

COC(=O)CCC(C)[C@H]1CCC2C3CC[C@H]4C[C@@H](NCCCNCCCCNCCCN)CC[C@]4(C)C3CC[C@@]21C (stereo partly drawn) [drawing 99]
minimal effective concentration (HM): 5 µg/mL

CC(C)CCCC(C)[C@H]1CCC2C3C(CC[C@@]21C)[C@@]1(C)CC[C@@H](NCCCNCCCCN)C[C@@H]1C[C@H]3O (stereo partly drawn) [drawing 86]
minimal effective concentration (HM): 4 µg/mL
Minimum Effective Concentration, chick embryo diss. assay (chick embryo): > 10 µg

CC(CCC(=O)O)[C@H]1CCC2C3C(CC[C@@]21C)[C@@]1(C)CC[C@@H](NCCCNCCCCNCCCN)C[C@H]1C[C@H]3O (stereo partly drawn) [drawing 110]
minimal effective concentration (HM): 18.1 µg/mL
minimal effective concentration [2]: > 10 µg/mL

CC(CCC(=O)O)[C@H]1CCC2C3CC[C@@H]4C[C@H](NCCN)CC[C@]4(C)C3C[C@H](O)[C@@]21C (stereo partly drawn) [drawing 115]
Minimum Effective Concentration, chick embryo diss. assay (chick embryo): > 1 µg

COC(=O)CCC(C)[C@H]1CCC2C3CC[C@@H]4C[C@H](NCCN)CC[C@]4(C)C3C[C@H](O)[C@@]21C (stereo partly drawn) [drawing 114]
minimal effective concentration (HM): 2.4 µg/mL

CC(CCC(=O)O)[C@H]1CCC2C3CC[C@H]4C[C@@H](NCCCNCCCCN)CC[C@]4(C)C3CC[C@@]21C (stereo partly drawn)
minimal effective concentration (HM): 13.8 µg/mL
Minimum Effective Concentration, chick embryo diss. assay (chick embryo): 0.001 µg

CC(CCC(=O)O)[C@H]1CCC2C3C(CC[C@@]21C)[C@@]1(C)CC[C@H](NCCCNCCCCNCCCN)C[C@H]1C[C@H]3O (stereo partly drawn)
minimal effective concentration [2]: > 10 µg/mL

CC(C)CCCC(C)[C@H]1CCC2C3C(CC[C@@]21C)[C@@]1(C)CC[C@H](NCCCNCCCCN)C[C@@H]1C[C@H]3O (stereo partly drawn) [drawing 87]
Minimum Effective Concentration, chick embryo diss. assay (chick embryo): 1.10 µg

CC(CCC(=O)O)[C@H]1CCC2C3C(CC[C@@]21C)[C@@]1(C)CC[C@H](NCCN)C[C@H]1C[C@H]3O (stereo partly drawn) [drawing 113]
minimal effective concentration [2]: > 10 µg/mL

COC(=O)CCC(C)[C@H]1CCC2C3C(CC[C@@]21C)[C@@]1(C)CCC(NCCCNCCCCNCCCN)C[C@@H]1C[C@H]3O (stereo partly drawn)
Minimum Effective Concentration, chick embryo diss. assay (chick embryo): > 10 µg

N.N.[Cl][Pt][Cl] [Cisplatin, reference compound]
hematological profile [3]: profound anemia by day 28

CC(COS(=O)(=O)O)C(=O)CC[C@@H](C)[C@H]1CC[C@H]2[C@@H]3[C@H](O)C[C@H]4C[C@@H](NCCCNCCCCN)CC[C@]4(C)[C@H]3CC[C@]12C (single isomer, unassigned) [Compound 1360]
observed response in tadpole (Xenopus tadpoles; 10 μg/ml, stage 59-60 Xenopus): Swelling and lysis of certain erythrocytes occurred; also recorded: Subsequent tissue breakdown occurred in areas of tail surrounding these nuclear plugs; also recorded: extensive vasocclusion occurred within 60 minutes throughout the tail
effect on chick embryo blood ([1]; within 20 minutes): the blood circulating through the embryonic vessels exhibited a brighter red color

C[C@H](CCC(=O)O)[C@H]1CC[C@H]2[C@@H]3[C@H](O)C[C@@H]4C[C@H](NCCN)CC[C@]4(C)[C@H]3CC[C@]12C [Compound 414]
functional similarity in tadpole assay (Xenopus tadpoles; Xenopus tadpole assay): pharmacologic activity similar to Fraction 1
potency in tadpole assay relative to Fraction 1 (Xenopus tadpoles; Xenopus tadpole assay): potencies comparable to that of Fraction 1
vascular reactivity ([1]; 1 μg applied): 0

COC(=O)CCC(C)[C@H]1CCC2C3C(CC[C@@]21C)[C@@]1(C)CC[C@H](NCCN)C[C@H]1C[C@H]3O (stereo partly drawn) [drawing 92]
Minimum Effective Concentration, chick embryo diss. assay (chick embryo): > 1 µg

CC(C)CCC[C@@H](C)[C@H]1CC[C@H]2[C@@H]3CC[C@H]4C[C@H](NCCCNCCCCNCCCN)CC[C@]4(C)[C@H]3CC[C@]12C
Minimum Effective Concentration, chick embryo diss. assay (chick embryo): > 10 µg
